According to patent US5432194A, “(4-alkoxypyran-4-yl) substituted arylalkylaryl-, aryalkenylaryl-, and aryalkynylarylurea inhibitors of 5-lipoxygenase” (Abbott Laboratories, priority 1994, dated 1995):
Where a name gives a salt, the structure may show the parent alone.

Target: T1, 5-Lipoxygenase (Homo sapiens, UniProt P09917)
T1 construct: from tissue; host or cells: human heparinized whole blood
T1 sequence (P09917 1-674): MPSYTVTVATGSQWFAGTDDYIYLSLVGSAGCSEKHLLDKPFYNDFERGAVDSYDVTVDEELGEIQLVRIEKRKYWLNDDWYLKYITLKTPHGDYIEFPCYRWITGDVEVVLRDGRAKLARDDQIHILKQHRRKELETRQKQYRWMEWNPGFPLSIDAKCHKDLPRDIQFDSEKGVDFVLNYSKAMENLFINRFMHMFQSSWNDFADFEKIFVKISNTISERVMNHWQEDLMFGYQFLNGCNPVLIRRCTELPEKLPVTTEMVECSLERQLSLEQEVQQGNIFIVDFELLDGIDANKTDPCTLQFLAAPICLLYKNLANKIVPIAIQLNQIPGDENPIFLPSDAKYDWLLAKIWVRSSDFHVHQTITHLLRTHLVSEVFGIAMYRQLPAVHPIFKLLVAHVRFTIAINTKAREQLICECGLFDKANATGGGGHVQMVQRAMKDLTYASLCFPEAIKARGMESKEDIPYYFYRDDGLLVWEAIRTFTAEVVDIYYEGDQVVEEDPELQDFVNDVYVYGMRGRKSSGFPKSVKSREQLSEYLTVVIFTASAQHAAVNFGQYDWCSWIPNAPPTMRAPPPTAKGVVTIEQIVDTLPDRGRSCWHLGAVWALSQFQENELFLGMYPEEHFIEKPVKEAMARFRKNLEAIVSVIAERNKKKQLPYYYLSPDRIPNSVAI
Assay: Inhibition of calcium ionophore-induced LTB4 biosynthesis in human whole blood (5-lipoxygenase)
Assay type: cell-based
Details: for IC50: calcium ionophore A23187 8.3 μM, 15 min preincubation, 37° C., read-out: IC50 against 5-lipoxygenase from stimulated LTB4 formation in human whole blood; for inhibition at 0.1 µM: @ 0.10 μM
Method: Inhibition of leukotriene biosynthesis was evaluated in an assay, involving calcium ionophore-induced LTB4 biosynthesis expressed human whole blood. Human heparinized whole blood was preincubated with test compounds or vehicle for 15 min at 37° C. followed by calcium ionophore A23187 challenge (final concentration of 8.3 μM) and the reaction terminated after 30 min by adding two volumes of methanol containing prostaglandin B2 as an internal recovery standard. The methanol extract was analyzed for LTB4 using a commercially available radioimmunoassay.

[1] = A23187, read-out: Inhibition of stimulated LTB4 formation in human whole blood

| IC50 [nM] | SMILES | also measured |
| --- | --- | --- |
| 30 | C=CCN(C)C(=O)N(C)c1ccc(Sc2cccc(C3(OC)CCOCC3)c2)cc1 [Example 35, 4-{3-[4-(((N'-allyl-N'-methylamino)carbonyl)-N-methylamino)phenyl-thio]phenyl}-4-methoxytetrahydropyran] |  |
|  | COC1(c2cccc(Sc3ccc(N(C)C(=O)N4CCOCC4)cc3)c2)CCOCC1 [Example 29, 4-{3-[4-((4-morpholinocarbonyl)-N-methylamino)phenylthio]phenyl}-4-methoxytetrahydropyran] | inhibition at 0.1 µM [1]: 94% |
|  | COC1(c2cccc([S+]([O-])c3ccc(N(C)C(=O)N(C)C)cc3)c2)CCOCC1 (stereo not shown) [Example 9, 4-{3-[4-((N',N'-dimethylaminocarbonyl)-N-methylamino)phenylsulfinyl]phenyl}-4-methoxytetrahydropyran] | inhibition at 0.1 µM [1]: 25% |
|  | COC1(c2cccc(Sc3ccc(N(C)C(=O)N(C)C)cc3)c2)CCOCC1 [Example 8, 4-{3-[4-((N',N'-dimethylaminocarbonyl)-N-methylamino)phenylthio]phenyl}-4-methoxytetrahydropyran] | inhibition at 0.025 µM (@ 0.025 μM, A23187, read-out: Inhibition of stimulated LTB4 formation in human whole blood): 45% |
| 17 | COC1(c2cc(F)cc(OCc3ccc(N(C)C(=O)N(C)C)cc3)c2)CCOCC1 [Example 1, 4-{3-[4-((N',N'-dimethylaminocarbonyl)-N-methylamino)benzyloxy]-5-fluorophenyl}-4-methoxytetrahydropyran] |  |
|  | COC1(c2cc(F)cc(OCc3ccc(CN4CCNC4=O)cc3)c2)CCOCC1 [Example 17, 4-{3-[4-(imidazolidin-2-on-1-ylmethyl)benzyloxy]-5-fluorophenyl}-4-methoxytetrahydropyran] | inhibition at 200 µM (@ 200 μM, A23187, read-out: Inhibition of stimulated LTB4 formation in human whole blood): 13% |
| 80 | COC1(c2cccc(Sc3ccc(N(C)C(=O)N4CCN(C)CC4)cc3)c2)CCOCC1 [Example 33, 4-{3-[4-(((4-methylpiperazinyl)carbonyl)-N-methylamino)phenylthio]phenyl}-4-methoxytetrahydropyran hydrochloride salt] |  |
| 1800 | COC1(c2cc(F)cc(OCc3ccc(CNC(=O)N(C)C)cc3)c2)CCOCC1 [Example 11, 4-{3-[4-((N',N'-dimethylaminocarbonyl)aminomethyl)benzyloxy]-5-fluorophenyl}-4-methoxytetrahydropyran] |  |
| 70 | COC1(c2cccc(Sc3ccc(N(C)C(=O)N4CCN(C)CC4)cc3)c2)CCOCC1 [Example 31, 4-{3-[4-(((4-methylpiperazinyl)carbonyl)-N-methylamino)phenylthio]phenyl}-4-methoxytetrahydropyran] |  |
|  | CNC(=O)N(C)c1ccc(Sc2cccc(C3(OC)CCOCC3)c2)cc1 [Example 28, 4-{3-[4-((N"-methylaminocarbonyl)-N-methylamino)phenylthio]phenyl}-4-methoxytetrahydropyran] | inhibition at 0.78 µM (@ 0.78 μM, A23187, read-out: Inhibition of stimulated LTB4 formation in human whole blood): 100% |
